Measurements published in patent US7795291B2, “Substituted acid derivatives useful as anti-atherosclerotic, anti-dyslipidemic, anti-diabetic and anti-obesity agents and method” (Bristol-Myers Squibb Company, priority 2006, dated 2010).

How the values were obtained:
human PPARα receptor = target: T1, human PPARα receptor (Homo sapiens, UniProt Q07869); assay: GAL4-hPPARα-LBD functional transactivation (luciferase) assay in HEK293 cells; format: cell-based; conditions: for Emax: HEK293, maximum activity vs maximal activity of 100 μM fenofibric acid, read-out: PPARα % efficacy
T1 construct: transiently transfecting GAL4-hPPARα-LBD or GAL4-hPPARγ-LBD constructs; GAL4 (fusion partner); expressed in transfected cells; host or cells: HEK293 cells stably expressing 5×GAL4RE-Luciferase
T1 sequence (Q07869 239-466 limits assumed): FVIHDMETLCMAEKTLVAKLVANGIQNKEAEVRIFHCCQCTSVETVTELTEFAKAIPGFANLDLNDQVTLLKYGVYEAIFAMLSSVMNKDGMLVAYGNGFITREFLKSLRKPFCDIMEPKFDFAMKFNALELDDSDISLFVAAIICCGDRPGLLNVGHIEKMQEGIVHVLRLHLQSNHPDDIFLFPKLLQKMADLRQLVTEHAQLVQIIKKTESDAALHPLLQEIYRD
Protocol: (§1) In vitro PPAR agonist functional assays were performed by transiently transfecting GAL4-hPPARα-LBD or GAL4-hPPARγ-LBD constructs respectively into HEK293 (human embryonic kidney) cells stably expressing 5×GAL4RE-Luciferase. Agonist binding results in an increase in luciferase enzyme activity which can be monitored by measuring luminescence upon cell lysing and the addition of luciferin substrate. EC50 values (μM) for PPARα or γ agonist activity were calculated as the concentration of the test ligand (μM) required for the half-maximal activity in HEK293 cells. The efficacy of a test ligand is defined as its maximum activity as compared to the maximal activity of the primary standards, 100 μM fenofibric acid for PPARα and 1 μM rosiglitazone for PPARγ, reported as % efficacy.

human PPARγ receptor = target: T2, human PPARγ receptor (Homo sapiens, UniProt P37231); assay: GAL4-hPPARγ-LBD functional transactivation (luciferase) assay in HEK293 cells; format: cell-based; conditions: for Emax: HEK293, maximum activity vs maximal activity of 1 μM rosiglitazone, read-out: PPARγ % efficacy
T2 construct: transiently transfecting GAL4-hPPARα-LBD or GAL4-hPPARγ-LBD constructs; GAL4 (fusion partner); expressed in transfected cells; host or cells: HEK293 cells stably expressing 5×GAL4RE-Luciferase
T2 sequence (P37231 238-503 limits assumed): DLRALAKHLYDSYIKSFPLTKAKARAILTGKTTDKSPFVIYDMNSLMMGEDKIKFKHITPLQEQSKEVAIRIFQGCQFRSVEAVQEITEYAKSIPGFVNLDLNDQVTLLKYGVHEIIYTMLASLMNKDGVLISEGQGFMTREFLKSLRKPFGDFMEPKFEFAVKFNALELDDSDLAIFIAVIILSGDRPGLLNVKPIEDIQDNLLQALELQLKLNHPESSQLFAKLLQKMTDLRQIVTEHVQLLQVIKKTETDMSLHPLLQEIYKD
Protocol: as §1

high fat-fed hamster = assay: High fat-fed hamster model: plasma triglyceride and cholesterol levels; format: in vivo, Golden Syrian Hamster (Mesocricetus auratus); conditions: 10 mg/kg orally dosed once daily for 14 days; high fat-fed male hamsters, fasted overnight
Protocol: It is known by one skilled in the art that the compounds of the present invention decrease plasma triglycerides and cholesterol levels at doses ≧10 mg/kg in rodent models of atherosclerosis and dyslipidemia (e.g. the high fat-fed hamster model). The typical administration of said compounds is expected to be between 0.1 to 2,000 mg/day in the clinical setting, and is preferably between 0.5 to 100 mg/day. (Reference for high fat-fed hamster model as an in vivo rodent model for anti-atheroslerosis efficacy: P-R Wang et al., Eur. Journ. of Pharm., 2001, 427, 285-293).
Male Golden Syrian Hamster (Mesocricetus auratus), 7-10 weeks of age and weighing 110-120 grams, were put on a high fat diet (D11953) for two weeks. The high fat diet was formulated by Research Diets, Inc, New Brunswick, N.J. using Purina 5001 as the base diet. Final composition (% by weight) of the diet is: 11.5% coconut oil, 11.5% corn oil, 0.5% cholesterol and 5% fructose. […] Plasma samples were obtained from hamsters fasted overnight (18 hours after last administration of compound) on day 22. The plasma triglyceride and cholesterol levels were determined and the percentage reductions in both parameters of drug-treated animals relative to vehicle-treated animals are shown in Table 2 below.

Row | SMILES | EC50 (human PPARα receptor; GAL4-hPPARα-LBD in HEK293 cells, 5×GAL4RE-Luciferase) [nM] | Emax (human PPARα receptor) [%] | EC50 (human PPARγ receptor; GAL4-hPPARγ-LBD in HEK293 cells, 5×GAL4RE-Luciferase) [nM] | Emax (human PPARγ receptor) [%] | % Reduction in Plasma Total Cholesterol vs Vehicle-control group (high fat-fed hamster) [%] | % Reduction in Plasma Triglycerides vs Vehicle-control group (high fat-fed hamster) [%]
1 | COC(=O)N(CC(=O)O)Cc1cc(OCc2nc(-c3ccc(Cl)cc3)oc2C)ccc1F [Compound 2] | 4 ± 1 | 81 | 4510 ± 1310 | 67 | −60 | −85
2 | COC(=O)N(CC(=O)O)Cc1cccc(OCc2nc(-c3ccc(Cl)cc3)oc2C)c1 [Compound 1, Glycine, N-[[3-[[2-(4-chlorophenyl)-5-methyl-4-oxazolyl]methoxy]phenyl]methyl]-N-(methoxycarbonyl)-] |  | 81 |  | 83 | −38 | −77
